# In ChEMBL document CHEMBL1154370, “Palmyramide A, a cyclic depsipeptide from a Palmyra Atoll collection of the marine cyanobacterium Lyngbya majuscula” (J Nat Prod, 2010):
# How the values were obtained:
# [1] = Inhibition of voltage-gated sodium channel in mouse Neuro2a cells assessed as suppression of quabain and veratridine-induced sodium overload cytotoxicity after 24 hrs by MTT assay; assay type: cell-based; conditions: N2a
# NCI-H460 = assay: Cytotoxicity against human H460 cells after 48 hrs by MTT assay; assay type: functional, cell-based; conditions: NCI-H460, 48 h
compound,measurement,setting,value
CCC[C@H]1OC(=O)[C@H](C(C)C)NC(=O)[C@@H](C(C)C)N(C)C(=O)[C@@H]2CCCN2C(=O)[C@H](Cc2ccccc2)OC(=O)[C@H](C)OC(=O)C1(C)C [PALMYRAMIDE A],IC50,[1],17.2 µM
same,IC50,NCI-H460,39.7 µM
